Experimental data as given in US20060063759A1, “Tricyclic steroid hormone nuclear receptor modulators” (priority 2002, published 2006).

Key:
[1] = target: T1, human MR (Homo sapiens, UniProt P08235); assay: Mineralocorticoid Receptor Binding Assay ([3H]-aldosterone); settings: [3H]-aldosterone binding, human MR expressed in Sf9 cells; read-out: MR Ki
T1 construct: The full length human MR gene is cloned from a human kidney or human brain cDNA library; His tag from the pAcHLT vector (own knowledge); made in house; host or cells: Sf9 insect cells (baculovirus, pAcHLT transfer vector)
T1 sequence (P08235 1-984): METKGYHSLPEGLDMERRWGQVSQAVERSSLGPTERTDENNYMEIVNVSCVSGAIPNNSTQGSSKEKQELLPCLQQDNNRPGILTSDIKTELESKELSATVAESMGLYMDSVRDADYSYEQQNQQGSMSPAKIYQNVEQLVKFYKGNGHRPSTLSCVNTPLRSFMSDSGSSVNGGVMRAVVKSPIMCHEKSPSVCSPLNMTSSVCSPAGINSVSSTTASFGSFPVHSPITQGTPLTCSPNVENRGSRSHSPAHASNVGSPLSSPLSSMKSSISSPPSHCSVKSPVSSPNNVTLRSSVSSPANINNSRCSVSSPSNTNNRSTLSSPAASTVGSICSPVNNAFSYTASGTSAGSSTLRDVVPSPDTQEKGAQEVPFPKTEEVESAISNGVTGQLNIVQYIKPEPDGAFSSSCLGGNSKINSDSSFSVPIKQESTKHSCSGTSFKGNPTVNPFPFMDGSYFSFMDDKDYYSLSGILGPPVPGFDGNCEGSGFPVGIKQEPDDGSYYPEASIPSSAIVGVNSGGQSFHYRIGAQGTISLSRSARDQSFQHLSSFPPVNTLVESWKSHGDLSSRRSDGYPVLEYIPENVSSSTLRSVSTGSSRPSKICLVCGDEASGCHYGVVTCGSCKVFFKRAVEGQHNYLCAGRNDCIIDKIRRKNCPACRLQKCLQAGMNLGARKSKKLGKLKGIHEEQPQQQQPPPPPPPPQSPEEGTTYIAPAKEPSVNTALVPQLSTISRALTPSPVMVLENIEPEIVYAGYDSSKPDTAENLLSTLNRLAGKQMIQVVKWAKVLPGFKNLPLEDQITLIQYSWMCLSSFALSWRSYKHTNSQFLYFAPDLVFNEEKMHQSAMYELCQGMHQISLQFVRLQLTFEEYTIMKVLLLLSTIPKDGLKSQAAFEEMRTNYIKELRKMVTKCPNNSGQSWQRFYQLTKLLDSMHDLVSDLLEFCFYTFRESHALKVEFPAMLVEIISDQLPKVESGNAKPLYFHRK
In short: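 Receptor source: freeze-thaw lysate of baculovirus-infected Sf9 cells carrying full-length human MR, 20-25 μg protein. Incubation ~16 h at 4 °C with shaking, pH 7.5 buffer containing 30 mM sodium molybdate and 10% glycerol.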

[2] = target: T2, glucocorticoid receptor (Homo sapiens, UniProt P04150); assay: Glucocorticoid Receptor Binding Assay ([3H]-dexamethasone, A549 cell extract); settings: [3H]-dexamethasone binding, read-out: GR Ki
T2 construct: containing 50-200 ug of A549 cell extract and 1.86 nM [^3H]-dexamethasone; host or cells: A549 human lung epithelial cells (sonicated cell extract)
T2 sequence (P04150 1-777): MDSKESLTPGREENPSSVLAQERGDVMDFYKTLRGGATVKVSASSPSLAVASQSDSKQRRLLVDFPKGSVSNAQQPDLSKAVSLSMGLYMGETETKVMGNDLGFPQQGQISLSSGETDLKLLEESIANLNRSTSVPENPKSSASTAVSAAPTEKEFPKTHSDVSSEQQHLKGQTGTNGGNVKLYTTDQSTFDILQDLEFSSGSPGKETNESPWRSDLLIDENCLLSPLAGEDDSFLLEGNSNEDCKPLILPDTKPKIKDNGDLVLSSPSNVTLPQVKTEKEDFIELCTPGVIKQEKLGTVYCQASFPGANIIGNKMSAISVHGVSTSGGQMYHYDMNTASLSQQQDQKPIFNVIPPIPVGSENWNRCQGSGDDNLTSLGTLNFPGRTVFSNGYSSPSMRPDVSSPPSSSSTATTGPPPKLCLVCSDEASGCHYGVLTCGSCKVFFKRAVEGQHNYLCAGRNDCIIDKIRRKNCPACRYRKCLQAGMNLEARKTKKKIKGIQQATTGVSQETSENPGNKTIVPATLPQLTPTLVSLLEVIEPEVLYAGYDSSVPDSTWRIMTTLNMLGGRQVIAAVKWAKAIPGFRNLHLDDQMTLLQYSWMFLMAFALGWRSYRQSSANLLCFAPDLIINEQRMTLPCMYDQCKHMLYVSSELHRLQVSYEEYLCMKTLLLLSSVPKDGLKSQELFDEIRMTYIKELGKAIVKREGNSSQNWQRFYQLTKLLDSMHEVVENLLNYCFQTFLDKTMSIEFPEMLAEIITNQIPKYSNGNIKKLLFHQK
Description: All ligands, radioligands, solvents, and reagents employed in the binding assays are readily available from commercial sources, or can be readily synthesized by the ordinarily skilled artisan.
A549 human lung epithelial cells (ATCC) are grown at a scale where gram quantity cell pellets are obtained. Harvested cell pellets are washed twice in cold phosphate buffered saline, centrifuged, and resuspended in cold assay binding buffer. The assay binding buffer consists of 10% glycerol, 50 mM Tris-HCl (pH7.2), 75 mM sodium chloride, 1.5 mM magnesium chloride, 1.5 mM EDTA, and 10 mM sodium molybdate. Cell suspensions were lysed via sonication, centrifuged, and the “extract” supernatant is snap frozen and stored at −80 C until needed.
GR binding assays are performed in a final volume of 140 ul containing 50-200 ug of A549 cell extract and 1.86 nM [^3H]-dexamethasone (Amersham) plus varying concentrations of test compound or vehicle. Briefly, assays are prepared at RT in 96-well Fisher 3356 plates, each well containing 100 ul of A549 cell extract, 20 ul of [^3H]-dexamethasone, and 20 ul of test compound/vehicle. Incubations are carried out at 4 degrees Celsius for 16 hours. After incubation, 70 ul of 3× dextran-coated charcoal solution is added to each reaction, mixed, and incubated for 8 minutes at RT. 3×-dextran-coated charcoal solution consists of 250 ml assay binding buffer, 3.75 g Norit A charcoal (Sigma), and 1.25 g dextran T-70 (Amersham). Charcoal/unbound radioligand complexes are removed by centrifugation of the plate and 140 ul of supernatant from each well is transferred to another 96 well Optiplate (Packard Instruments). 200 ul of Microscint-20 scinillant (Packard Instruments) is added to each well and amount of receptor bound radioligand is determined using Packard Instruments TopCount instrument.

Structure (SMILES)	Ki [1] [nM]	Ki [2] [nM]
COc1ccc2c(c1OC)CSc1ccccc1/C2=C/c1cccc(NS(=O)(=O)c2ccccc2)c1 [Example 738]	< 500	< 500
CS(=O)(=O)Nc1cccc(/C=C2\c3ccccc3COc3cc(Cl)ccc32)c1 [Example 665]	< 500	< 500
CS(=O)(=O)Nc1cc(F)cc(/C=C2\c3ccc(F)cc3CCc3ncccc32)c1 [Example 488, (E)-N-[3-Fluoro-5-(8-fluoro-10,11-dihydro-benzo[4,5]cyclohepta[1,2-b]pyridin-5-ylidenemethyl)-phenyl]-methanesulfonamide]	< 500	< 500
CS(=O)(=O)Nc1cc(F)cc(/C=C2\c3ccc(Cl)cc3COc3ccccc32)c1 [Example 623]	< 500	< 500
CS(=O)(=O)Nc1cccc(/C=C2\c3ccc(Cl)cc3CCc3ncccc32)c1 [Example 570]	< 500	< 1000
Cc1cccc2c1OCc1ccccc1/C2=C/c1cccc(NS(C)(=O)=O)c1 [Example 673]	< 500	< 500
O=c1[nH]c2cc(C=C3c4ccccc4CCc4ccccc43)ccc2s1 [Example 467]	< 500	< 500
Fc1ccc2c(c1)CCc1ncccc1/C2=C\c1ccccc1F [Example 582]	< 500	< 10000
CN(C)S(=O)(=O)Nc1cccc(C=C2c3ccccc3CCc3ccccc32)c1 [Example 112, Dimethylsulfamic acid [3-(10,11-dihydro-dibenzo[a,d]cyclohepten-5-ylidenemethyl)-phenyl]-amide]	< 500	< 500
O=S(=O)(CC(F)(F)F)Nc1cccc(C=C2c3ccc(Cl)cc3CSc3cc(Cl)ccc32)c1 [Example 721]	< 500	< 500
CS(=O)(=O)Nc1cccc(/C=C2/c3ccc(Cl)cc3CCc3sccc32)c1 [Example 499]	< 500	< 500
CS(=O)(=O)Nc1cccc(/C=C2/c3ccc(Cl)cc3CCc3ncsc32)c1 [Example 552]	< 500	< 500
C/C(=C1\c2cc(F)ccc2COc2ccccc21)c1cccc(NS(C)(=O)=O)c1 [Example 790]	< 500	< 500
O=c1[nH]c2cc(/C=C3/c4ccccc4COc4ccccc43)ccc2o1 [Example 619]	< 500	< 500
CS(=O)(=O)Nc1cccc(/C=C2/c3ccccc3COc3ccc(F)cc32)c1 [Example 671]	< 500	< 500
Oc1cccc(C=C2c3ccc(Cl)cc3CCc3cc(Cl)ccc32)c1 [Example 183, 3-(2,8-Dichloro-10,11-dihydro-dibenzo[a,d]cyclohepten-5-ylidenemethyl)-phenol]	< 500	< 500
COC(=O)Nc1cccc(C=C2c3ccccc3CCc3cc(Cl)ccc32)c1 [Example 396]	< 500	< 500

Structure (SMILES)	Ki [1] [nM]	Ki [2] [nM]
NC(=O)c1ccc(C=C2c3ccccc3CCc3ccccc32)cc1 [Example 85, 4-(10,11-Dihydro-dibenzo[a,d]cyclohepten-5-ylidenemethyl)-benzamide]	< 500	< 500
O=c1[nH]c2ccc(/C=C3\c4ccccc4CCc4cccc(Cl)c43)cc2[nH]1 [Example 466]	< 500	< 1000
COC(=O)c1ccc2c(c1)CCc1ccccc1/C2=C\c1cccc(NS(C)(=O)=O)c1 [Example 386]	< 500	< 500
C/C(=C1\c2ccccc2COc2cc(C)ccc21)c1cccc(NS(C)(=O)=O)c1 [Example 784]	< 500	< 500
CS(=O)(=O)Nc1cccc(C=C2c3ccccc3CCc3cc(N)ccc32)c1 [Example 401]	< 500	< 500
CCS(=O)(=O)Nc1cccc(C=C2c3ccccc3CCc3c(Cl)cccc32)c1 (mixture of isomers) [Example 208(a), Ethanesulfonic acid [3-(1-chloro-10,11-dihydro-dibenzo[a,d]cyclohepten-5-ylidenemethyl)-phenyl]-amide]	< 500	< 500
C/C(=C1\c2ccccc2COc2cc(F)ccc21)c1cccc(NS(C)(=O)=O)c1 [Example 808]	< 500	< 500
CS(=O)(=O)Nc1cccc(/C=C2/c3ccccc3CCc3cc(C(N)=O)ccc32)c1 [Example 415]	< 500	< 500
O=c1[nH]c2cc(/C=C3\c4ccccc4COc4cc(Cl)ccc43)ccc2n1CCN1CCOCC1 [Example 647]	< 500	< 1000
CSc1ccc2c(c1)C(=Cc1cccc(NS(C)(=O)=O)c1)c1ccccc1CC2 [Example 320]	< 500	< 500
N#CNc1cccc(C=C2c3ccccc3CCc3ccccc32)c1 [Example 280]	< 500	< 1000
CS(=O)(=O)Nc1cccc(/C=C2/c3ccccc3CCc3cc(C(F)(F)F)ccc32)c1 [Example 390]	< 500	< 500
CS(=O)(=O)Nc1cccc(C=C2c3ccccc3CCc3ccccc32)c1 [Example 90, N-[3-(10,11-Dihydro-dibenzo[a,d]cyclohepten-5-ylidenemethyl)-phenyl]-methanesulfonamide]	< 500	< 500
COc1ccc2c(c1)COc1ccccc1/C2=C(/C)c1cccc(NS(C)(=O)=O)c1 [Example 817]	< 500	< 500
O=c1[nH]c2ccc(/C=C3\c4ccc(Cl)cc4COc4ccccc43)cc2[nH]1 [Example 641]	< 500	< 1000
Cc1c(C=C2c3ccccc3CCc3ccccc32)cccc1NS(C)(=O)=O [Example 48, N-[3-(10,11-Dihydro-dibenzo[a,d]cyclohepten-5-ylidenemethyl)-2-methyl-phenyl]-methanesulfonamide]	< 500	< 500
